Assay results published in patent US7307063B2, “Melanocortin metallopeptides for treatment of sexual dysfunction” (Palatin Technologies, Inc., priority 2001, dated 2007).
Non-standard residues stand in square brackets, D forms with d. No end group written: not given here. *: point of attachment. Bip = N[C@@H](Cc1ccc(-c2ccccc2)cc1)C(=O)O; dBip = N[C@H](Cc1ccc(-c2ccccc2)cc1)C(=O)O; dDip = N[C@@H](C(=O)O)C(c1ccccc1)c1ccccc1; 1Nal = N[C@@H](Cc1cccc2ccccc12)C(=O)O; dIgl = N[C@@H](C(=O)O)C1Cc2ccccc2C1; Igl = N[C@H](C(=O)O)C1Cc2ccccc2C1; 4‑Amc = not defined here; Heptanoyl = CCCCCCC(=O)*; Nle = CCCC[C@H](N)C(=O)O; Bn = c1ccc(C*)cc1

Key:
MC1-R = target: T1, MC1-R (Mus musculus, UniProt Q01727); assay: Competitive binding assay: inhibition of 125I-NDP-α-MSH binding to membranes from B16-F10 mouse melanoma cells; settings: Table 6, mean of triplicate
T1 construct: MC1-R membranes were isolated from B16—F10 mouse melanoma cells; endogenous in cells; host or cells: B16-F10 mouse melanoma cells
T1 sequence (Q01727 whole entry): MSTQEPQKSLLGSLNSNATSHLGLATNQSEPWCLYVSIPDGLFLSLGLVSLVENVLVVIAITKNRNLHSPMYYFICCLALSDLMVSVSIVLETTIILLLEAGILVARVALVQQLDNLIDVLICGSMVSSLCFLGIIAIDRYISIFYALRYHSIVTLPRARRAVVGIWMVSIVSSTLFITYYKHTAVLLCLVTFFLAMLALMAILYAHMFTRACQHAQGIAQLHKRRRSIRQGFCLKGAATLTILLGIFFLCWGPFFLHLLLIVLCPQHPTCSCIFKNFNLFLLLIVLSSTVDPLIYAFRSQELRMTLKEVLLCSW
Procedure: (§1) Rhenium-complexed metallopeptides of the formulas given in Table 1 were prepared, with the metallopeptides complexed with rhenium using the rhenium transfer agent ReOCl3(PPh3)2 in the presence of 1,8-Diazabicyclo[5,4,0] undec-7-ene as a base, as disclosed in International Application PCT/US00/16396, filed Jun. 14, 2000, Melanocortin Metallopeptide Constructs, Combinatorial Libraries and Applications, incorporated by reference herein. Affinities of compounds were measured using membranes from HEK-293 cells containing cloned human melanocortin receptor subtypes 3, 4 and 5. MC1-R membranes were isolated from B16—F10 mouse melanoma cells. The assay tube also contained a chosen concentration of the test peptide of this invention, complexed to a rhenium metal ion as indicated, for determining its efficacy in inhibiting the binding of ^125I-NDP-α-MSH to its receptor. Non-specific binding was measured by complete inhibition of binding of ^125I-NDP-α-MSH in the assay with the presence of 1 μM α-MSH. 100% specific binding was defined as the difference in radioactivity (cpm) bound to cell membranes in the absence and presence of 1 μM α-MSH. The cpm obtained in presence of test compounds were normalized with respect to 100% specific binding to determine the percent inhibition of ^125I-NDP-α-MSH binding.
(§2) Peptide sequences set forth in Table 6 were prepared using conventional synthetic means. The resulting sequences were rhenium-complexed to form metallopeptides, with the metallopeptides complexed with rhenium using the rhenium transfer agent ReOCl3(PPh3)2 in the presence of 1,8-Diazabicyclo[5,4,0] undec-7-ene as a base. Percent inhibition was determined as in Example 1 using the Re-complexed metallopeptides, using the same methods as described therein. All measures are means of triplicate determinations.

MC4-R = target: T2, MC4-R (Homo sapiens, UniProt P32245); assay: Competitive binding assay: inhibition of 125I-NDP-α-MSH binding to HEK-293 membranes with cloned human receptor subtype 4; settings: Table 6, mean of triplicate
T2 construct: expressed in transfected cells; host or cells: HEK-293
T2 sequence (P32245 whole entry): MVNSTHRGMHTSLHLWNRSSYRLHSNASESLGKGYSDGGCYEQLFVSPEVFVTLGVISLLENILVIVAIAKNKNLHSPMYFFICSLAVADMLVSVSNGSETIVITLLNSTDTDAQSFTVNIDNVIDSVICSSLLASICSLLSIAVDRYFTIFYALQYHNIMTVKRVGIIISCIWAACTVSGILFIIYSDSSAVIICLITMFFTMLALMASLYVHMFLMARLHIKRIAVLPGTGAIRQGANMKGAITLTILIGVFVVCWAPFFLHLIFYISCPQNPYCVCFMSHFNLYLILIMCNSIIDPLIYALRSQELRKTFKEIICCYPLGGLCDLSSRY
Procedure: as §1, §2

hMC5-R = target: T3, hMC5-R (Homo sapiens, UniProt P33032); assay: Competitive binding assay: inhibition of 125I-NDP-α-MSH binding to HEK-293 membranes with cloned human receptor subtype 5; settings: Table 6; 1 μM; mean of triplicate
T3 construct: expressed in transfected cells; host or cells: HEK-293
T3 sequence (P33032 whole entry): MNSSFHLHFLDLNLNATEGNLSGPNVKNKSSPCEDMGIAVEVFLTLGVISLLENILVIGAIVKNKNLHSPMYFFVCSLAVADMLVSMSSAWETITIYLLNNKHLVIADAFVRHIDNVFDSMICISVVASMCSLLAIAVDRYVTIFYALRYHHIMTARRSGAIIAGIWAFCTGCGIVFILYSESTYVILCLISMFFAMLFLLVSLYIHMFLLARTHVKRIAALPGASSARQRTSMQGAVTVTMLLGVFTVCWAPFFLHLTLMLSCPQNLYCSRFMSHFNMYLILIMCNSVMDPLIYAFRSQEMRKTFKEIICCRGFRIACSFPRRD
Procedure: as §1, §2

hMC2-R = target: T4, hMC2-R (Homo sapiens, UniProt P41968); assay: Competitive binding assay of additional compounds, Table 6 hMC2-R; settings: 1 μM, mean of triplicate
T4 construct: expressed in transfected cells; host or cells: HEK-293
T4 sequence (P41968 whole entry): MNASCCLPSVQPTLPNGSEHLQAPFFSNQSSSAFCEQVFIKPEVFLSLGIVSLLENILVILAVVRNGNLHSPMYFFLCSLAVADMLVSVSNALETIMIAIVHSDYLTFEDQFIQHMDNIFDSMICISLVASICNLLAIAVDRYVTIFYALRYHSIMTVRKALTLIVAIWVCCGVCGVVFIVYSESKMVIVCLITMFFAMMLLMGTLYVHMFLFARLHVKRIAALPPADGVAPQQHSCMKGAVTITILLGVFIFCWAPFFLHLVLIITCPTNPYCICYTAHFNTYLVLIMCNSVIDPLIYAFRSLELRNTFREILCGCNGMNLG
Procedure: [The source words this procedure for another target and reports this target under the same test.] as §1, §2

[1] = 1 μM, listed as Hept-Ser(Bzl)-D-Nal 2′-Arg-Nal 2′-Cys-NH2, 1 µM
[2] = 1 μM, listed as 3′-Bromo phenyl acetyl-Arg-Arg-D-Phe(4′-Cl)-Cys-Nal 2′-NH2, 1 µM

| Substance | % Inhibition of Binding MC1-R (MC1-R; 1 μM) [%] | % Inhibition of Binding hMC4-R (MC4-R; 1 μM) [%] | % Inhibition of Binding hMC2-R (hMC2-R) [%] | other results |
| --- | --- | --- | --- | --- |
| [dIgl][dF]RCW-NH2 | 49 | 15 | 12 | % Inhibition of Binding hMC5-R (hMC5-R): 39% |
| Ac-Nle-Ala-His-D-Phe-Arg-Nal 1′-Cys-NH2 | 95 | 65 | 22 | % Inhibition of Binding hMC5-R (hMC5-R): 82% |
| 3′-Br Phenyl acetyl-Arg-Arg-D-Phe(4′-Cl)-Cys-Bip-NH2 | 69 | 78 | 60 | % Inhibition of Binding hMC5-R (hMC5-R): 86% |
| NH2(CH2)6CO-Ser(Bzl)-D-Nal 2′-Arg-Trp-Cys-NH2 | 14 | 96 | 69 | % Inhibition of Binding hMC5-R (hMC5-R): 95% |
| [dIgl][dF]RWC-NH2 | 2 | 8 | 0 | % Inhibition of Binding hMC5-R (hMC5-R): 63% |
| Tic-D-Phe(2′-Cl)-Arg-Trp-Cys-NH2 | 15 | 69 | 26 | % Inhibition of Binding hMC5-R (hMC5-R): 59% |
| [Igl][dF]RWC-NH2 | 70 | 62 | 0 | % Inhibition of Binding hMC5-R (hMC5-R): 36% |
| Tic-D-Phe(4′-Cl)-His-Cys-NH2 | 15 | 0 | 0 | % Inhibition of Binding hMC5-R (hMC5-R): 37% |
| D-Igl-D-Nal 2′-Arg-Trp-Cys-NH2 | 27 | 97 | 73 | % Inhibition of Binding hMC5-R (hMC5-R): 85% |
| [dDip][dF]RWC-NH2 | 23 | 34 | 0 | % Inhibition of Binding hMC5-R (hMC5-R): 8% |
| 4-Amc-D-Phe-Arg-Trp-Cys-NH2 ({4‑Amc}-[dF]RWC-NH2; not fully specified; printed as 4-Amc-D-Phe-Arg-Trp-Cys-NH2; reading uncertain) | 51 | 6 | 0 | % Inhibition of Binding hMC5-R (hMC5-R): 6% |
| Ac-Nle-Ala-His-D-Phe-Arg-D-Nal 2′-Cys-NH2 | 100 | 90 | 0 | % Inhibition of Binding hMC5-R (hMC5-R): 54% |
| Nal 1′-D-Phe-Arg-Trp-Cys-NH2 ([1Nal][dF]RWC-NH2; also: metal complex) | 11 | 15 | 3 | % Inhibition of Binding hMC5-R (hMC5-R): 68% |
| Ac-[Nle]AH[dBip]RCW-NH2 | 72 | – | 100 | – |
| Heptanoyl-S(Bn)[dBip]R[Bip]C-NH2 | 30 | – | 0 | – |
| Heptanoyl-Ser(Bzl)-D-Nal 2′-Arg-Nal 2′-Cys-NH2 | 28 | 91 | 41 | % Inhibition of Binding MC1-R (MC1-R; [1]): 25%; % Inhibition of Binding hMC4-R (MC4-R; [1]): 92%; % Inhibition of Binding hMC2-R (hMC2-R; listed as Hept-Ser(Bzl)-D-Nal 2′-Arg-Nal 2′-Cys-NH2, 1 µM): 62% |
| 3′-Br Phenyl acetyl-Arg-Arg-D-Phe(4′-Cl)-Cys-Nal 2′-NH2 | 90 | 96 | 95 | % Inhibition of Binding MC1-R (MC1-R; [2]): 79%; % Inhibition of Binding hMC4-R (MC4-R; [2]): 94%; % Inhibition of Binding hMC2-R (hMC2-R; listed as 3′-Bromo phenyl acetyl-Arg-Arg-D-Phe(4′-Cl)-Cys-Nal 2′-NH2, 1 µM): 55% |
| Ac-[Nle]AH[dF]RC[Bip]-NH2 | 82 | – | 100 | – |
| Ac-[Nle]AH[dBip]RC[Bip]-NH2 | 77 | – | 100 | – |
| Heptanoyl-S(Bn)[dBip]RWC-NH2 | 84 | – | 0 | – |
| Heptanoyl-Ser(Bzl)-D-Phe(4′-Cl)-Arg-Bip-Cys-NH2 | 65 | – | 5 | – |
| Ac-[Nle]AH[dBip]RWC-NH2 | 99 | – | 100 | – |
| Heptanoyl-Ser(Bzl)-D-Phe(2′-Cl)-Lys-Nal 2′-Cys-NH2 | 62 | 91 | – | – |
| Heptanoyl-[dP][dF]RWCK-NH2 | 88 | 71 | – | – |
| Heptanoyl-Ser(Bzl)-D-Phe(4′-Cl)-Arg-Phe(2′-F)-Cys-NH2 | – | – | – | % Inhibition of Binding MC1-R (MC1-R; 0.1 μM): 14%; % Inhibition of Binding hMC4-R (MC4-R; 0.1 μM): 46% |
| (N-PhEt)-D-Phe(2′-Cl)-Lys-Nal 2′-Cys-NH2 | – | – | – | % Inhibition of Binding MC1-R (MC1-R; 0.1 μM): 64%; % Inhibition of Binding hMC4-R (MC4-R; 0.1 μM): 80% |

| Substance | % Inhibition of Binding MC1-R (MC1-R; 1 μM) [%] | % Inhibition of Binding hMC4-R (MC4-R; 1 μM) [%] | % Inhibition of Binding hMC2-R (hMC2-R) [%] | other results |
| --- | --- | --- | --- | --- |
| [dF]RW[dC]W-NH2 | 53 | 45 | – | – |
| Heptanoyl-Ser(Bzl)-D-Phe(4′-Cl)-Arg-Phe-Cys-NH2 | – | – | – | % Inhibition of Binding MC1-R (MC1-R; 0.1 μM): 11%; % Inhibition of Binding hMC4-R (MC4-R; 0.1 μM): 32% |
| Heptanoyl-Ser(Bzl)-D-Phe(4′-Cl)-Arg-Tyr(2′,6′-diCl-Bzl)-Cys-NH2 | 19 | 0 | – | – |
| Heptanoyl-H[dF]RWCK-NH2 | 100 | 98 | – | – |
| PhCO-D-Phe(2′-Cl)-Lys-Nal 2′-Cys-NH2 | 60 | 41 | – | – |
| Heptanoyl-Ser(Bzl)-D-Nal 2′-Gly-Trp-Cys-Lys-NH2 | 27 | 0 | – | – |
| Ph(CH2)3-CO-D-Phe(2′-Cl)-Lys-Nal 2′-Cys-NH2 | 17 | 33 | – | – |
| Heptanoyl-Ser(Bzl)-D-Phe(4′-Cl)-Arg-Tyr(Bzl)-Cys-NH2 | 16 | 85 | – | – |
| [dF]RW[dC]K-NH2 | 23 | 42 | – | – |
| HyP(Bzl)-D-Phe(2′-Cl)-Nal 2′-Cys-NH2 | 57 | 85 | – | – |
| Heptanoyl-P[dF]RWCK-NH2 | 99 | 97 | – | – |
| Ac-[Nle]AH[dF]R[Bip]C-NH2 | 35 | – | 100 | – |
| 1′-Naphthyl acetyl-Arg-Arg-D-Phe(3′-Cl)-Cys-Trp-NH2 | 77 | 92 | – | – |
| 3′-Br Phenyl acetyl-Arg-Ala-D-Phe(3′-Cl)-Cys-Trp-NH2 | 23 | 84 | – | – |
| [dF]R[dW]CW-NH2 | 37 | 32 | – | – |
| Heptanoyl-Ser(Bzl)-D-Phe(4′-Br)-Arg-Trp-Cys-NH2 | – | – | – | % Inhibition of Binding MC1-R (MC1-R; 0.1 μM): 21%; % Inhibition of Binding hMC4-R (MC4-R; 0.1 μM): 90% |
| Heptanoyl-Ser(Bzl)-D-Phe(2′-Cl)-Lys-Phg-Cys-NH2 | 16 | 15 | – | – |
| 3′-Br-Phenylacetyl-Lys-Lys-D-Phe(4′-CH3)Cys-Lys-NH2 | 65 | 69 | – | – |
| NH2-(CH2)6-CO-Ser(Bzl)-D-Phe(4′-Cl)-Arg-D-Trp-Cys-NH2 | 48 | 97 | – | – |
| Ac-[Nle]AH[dBip]R[Bip]C-NH2 | 95 | – | 100 | – |
| Ac-WA[dF][dC]RW-NH2 | 15 | 3 | – | – |
| Heptanoyl-Ser(Bzl)-D-Phe(4′-Cl)-Arg-Tyr(3′,5′-Di-l)-Cys-NH2 | – | – | – | % Inhibition of Binding MC1-R (MC1-R; 0.1 μM): 10%; % Inhibition of Binding hMC4-R (MC4-R; 0.1 μM): 85% |
| Ser(Bzl)-D-Phe(2′-Cl)-Lys-Nal 2′-Cys-NH2 | 33 | 50 | – | – |
| Ac-Nle-Arg-Arg-D-Nal 2′-Cys-Lys-NH2 | 100 | 96 | – | – |
| 3′-Br Phenyl acetyl-Arg-Ala-D-Phe(4′-CF3)-Cys-Trp-NH2 | 22 | 95 | – | – |
| 3′-Cl Phenyl acetyl-Arg-Arg-D-Phe(4′-CF3)-Cys-Trp-NH2 | 85 | 99 | – | – |
